# Measured values from paper PMC9908594, “Biochemical characterization and identification of ferulenol and embelin as potent inhibitors of malate:quinone oxidoreductase from Campylobacter jejuni” (Frontiers in Molecular Biosciences, 2023).
# “And” between values parts separate entries of the source, which are not always exact repeats. Equal values may be shown once. Read-outs that look alike come from different tables or passages of the source.
# Tests used:
# C. jejuni ATCC29428 = experiment: C. jejuni growth inhibition, resazurin assay; format: cell-based, Campylobacter jejuni; settings: Mueller Hinton broth, 24 h, microaerophilic, 37°C, resazurin
# CjMQO [1] = molecular target: T1, CjMQO (Campylobacter jejuni, UniProt P56954); experiment: Inhibition mechanism of CjMQO (mixed-model fit, Lineweaver-Burk); format: biochemical
# Method: The inhibition mechanism of the two compounds were investigated as described in a previous study ([Acharjee et al., 2021]). First, the inhibition mechanism versus UQ1 was assayed separately in a reaction mixture containing 50 mM MOPS pH 7.0, 1 mM KCN and 0.2 μg/mL of purified CjMQO containing a range of different ferulenol (0, 0.01, 0.02, and 0.04 μM) and embelin (0, 0.05, 0.1, and 0.15 μM) concentrations. Enzyme activity was measured at varying concentrations of UQ1 (5, 10, 20, 50, and 100 μM) and the reaction was initiated with 10 mM malate. Second, the inhibition mechanism versus malate was determined at 50 μM of UQ1, and the reaction was initiated with varying concentrations of malate (5, 10, 15, and 20 mM) and monitored at 278 nm, in singlets. The steady-state kinetics parameters, in the presence of inhibitors, were used to produce the Lineweaver-Burk plot. Next, the data were fitted to a mixed-type inhibition equation by a nonlinear-regression method using GraphPad Prism software. The intercept and slope from the primary plot (Lineweaver-Burk plot), were replotted as a function of the inhibitor. Finally, additional analysis was performed based on Dixon and Cornish Bowden plots in addition to the plot of Lineweaver-Burk to differentiate the types of inhibition mechanisms.
# [2] = test system: DLD-1 (colon cancer-derived); set-up: method as in Hartuti et al., 2018; settings: ref Hartuti et al., 2018, read-out: Cytotoxicity IC50; cited from earlier work
# [3] = test system: Panc-1 (pancreatic cancer-derived); set-up: method as in Hartuti et al., 2018; settings: ref Hartuti et al., 2018, read-out: Cytotoxicity IC50; cited from earlier work
# human dermal fibroblast = test system: human dermal fibroblast; set-up: method as in Hartuti et al., 2018; settings: ref Hartuti et al., 2018, read-out: Cytotoxicity IC50; cited from earlier work
# TgMQO [4] = test system: TgMQO; set-up: method as in Acharjee et al., 2021; settings: previously reported; ref Acharjee et al., 2021; cited from earlier work
# [5] = molecular target: PfMQO (P. falciparum MQO) (Plasmodium falciparum, UniProt C6KT09); set-up: method as in Hartuti et al., 2018; settings: previously reported; ref Hartuti et al., 2018; cited from earlier work
# PfMQO (P. falciparum MQO), sequence (C6KT09 entry or part of it): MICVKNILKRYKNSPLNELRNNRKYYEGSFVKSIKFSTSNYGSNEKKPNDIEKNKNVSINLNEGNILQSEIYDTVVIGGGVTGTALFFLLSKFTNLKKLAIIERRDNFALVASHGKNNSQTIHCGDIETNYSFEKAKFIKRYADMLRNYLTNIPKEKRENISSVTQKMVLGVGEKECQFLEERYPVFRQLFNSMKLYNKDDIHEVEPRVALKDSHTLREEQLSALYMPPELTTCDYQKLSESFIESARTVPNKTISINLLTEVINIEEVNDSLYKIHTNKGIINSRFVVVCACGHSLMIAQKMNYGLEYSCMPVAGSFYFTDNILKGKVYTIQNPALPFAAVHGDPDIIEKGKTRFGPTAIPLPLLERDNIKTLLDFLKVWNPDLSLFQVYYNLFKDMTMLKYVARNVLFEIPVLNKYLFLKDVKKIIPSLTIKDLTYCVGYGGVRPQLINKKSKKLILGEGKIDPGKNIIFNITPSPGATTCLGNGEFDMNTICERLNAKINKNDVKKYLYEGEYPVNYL
# [6] = molecular target: CjMQO (malate:quinone oxidoreductase from C. jejuni) (Campylobacter jejuni, UniProt P56954); experiment: biochemical; format: biochemical; settings: 50 mM MOPS pH 7.0, 100 μM UQ1, 1 mM KCN, 0.2 μg/mL CjMQO, 10 mM malate; read-out: IC50 on purified CjMQO
# PfMQO = test system: PfMQO; set-up: method as in Hartuti et al., 2018; settings: for dUQ; ref Hartuti et al., 2018; cited from earlier work
# CjMQO [7] = molecular target: T1, CjMQO; experiment: Steady-state kinetics of purified CjMQO for substrates; format: biochemical; settings: for K m for malate: malate varied; for V max / k cat / k cat /K m / K m for ubiquinone: UQ varied, malate fixed 10 mM; for K m for ubiquinone: pH 7.0, 37°C
# Method: (§1) The steady-state kinetic parameters of CjMQO were determined for malate and ubiquinone (UQ) with different side chain length (UQ0, UQ1, UQ2, UQ4, and dUQ; Supplementary Figure S3). The reaction mixture contained UQ, 1% (v/v) ethanol, 50 mM MOPS, 1 mM KCN and 0.2 μg/mL of purified CjMQO at the optimal pH (pH 7.0) and physiological temperature (37°C). The reduction of quinones was measured through the decrease in the absorbance at 278 nm ( ε278= 15 mM^-1 cm^-1). The Michaelis constant (K m) and maximum velocity (V max) of CjMQO for UQs were determined by varying the concentrations of UQs from 0.1 to 100 μM with the malate concentration fixed at 10 mM.
# (§2) Next, K m and V max of CjMQO for malate were determined by varying the concentrations from 0.5 to 50 mM at fixed concentrations of different UQs (100 μM for UQ0 and UQ1 and 10 μM for dUQ and UQ2). The apparent steady-state kinetic parameters were calculated by Michaelis-Menten equation using GraphPad Prism software (ver. 9.3.1, GraphPad Software, Inc., San Diego, California, United States). Following the protocol previously described for TgMQO ([Acharjee et al., 2021]), the reaction mechanism of CjMQO was analysed using malate and UQ1 as substrates. Briefly, CjMQO activity was measured at different UQ1 concentrations (2, 5, 10, 20, and 50 μM) with malate concentrations fixed at 0.5, 2, and 5 mM; the data were then analysed using a double reciprocal plot (Lineweaver-Burk plot) produced by utilizing intercept and slope calculated from steady-state kinetics parameters obtained by fitting the data to Michalis-Menten equation with GraphPad Prism software. The type of reaction mechanism was determined based on the characteristics of the lines plotted in the double reciprocal plot.
# TgMQO [8] = test system: TgMQO; set-up: method as in Acharjee et al., 2021; settings: ref Acharjee et al., 2021, cited from earlier work
# [9] = substrate: CCCCCCCCCCC1=C(C)C(=O)C(OC)=C(OC)C1=O; experiment: Steady-state kinetics of purified CjMQO for substrates; format: biochemical; settings: other: UQ varied, malate fixed 10 mM; pH 7.0; 37.0 °C
# Method: as §1, §2
# [10] = substrate: O=C(O)CC(O)C(=O)O; experiment: as above; format: biochemical; settings: other: malate varied, pH 7.0, 37.0 °C
# Method: as §1, §2
# [11] = substrate: COC1=C(OC)C(=O)C(CC=C(C)C)=C(C)C1=O; experiment: as above; format: biochemical; settings: pH 7.0, 37.0 °C
# Method: as §1, §2
# [12] = other: UQ varied, malate fixed 10 mM
molecule,measurement,setting,value
"CC(C)=CCC/C(C)=C/CC/C(C)=C/Cc1c(O)c2ccccc2oc1=O [Ferulenol, ferulenol]",IC50,C. jejuni ATCC29428,600 nM
same,"K m (apparent, mixed-model fit)","CjMQO [1]; UQ1 varied, malate fixed",42 ± 5 µM
same,"V max (apparent, mixed-model fit)","CjMQO [1]; UQ1 varied, malate fixed",133 ± 7 µmol/min/mg
same,α versus UQ1 (quinone),"CjMQO [1]; UQ1 varied, malate fixed",1.04
same,K i versus UQ1,"CjMQO [1]; UQ1 varied, malate fixed (10 mM)",20 nM
same,Inhibition type versus UQ1 (quinone),"CjMQO [1]; UQ1 varied, malate fixed, NC: noncompetitive",noncompetitive
same,Inhibition type versus malate,"CjMQO [1]; malate varied, UQ1 fixed",Mixed
same,"K m (apparent, mixed-model fit)","CjMQO [1]; malate varied, UQ1 fixed","1,845 ± 201 μM"
same,"V max (apparent, mixed-model fit)","CjMQO [1]; malate varied, UQ1 fixed",70 ± 2 µmol/min/mg
same,α versus malate,"CjMQO [1]; malate varied, UQ1 fixed",2.66
same,K i versus malate,"CjMQO [1]; malate varied, UQ1 fixed (50 μM)",10 nM
same,Inhibition type versus malate,"CjMQO [1]; malate varied, UQ1 fixed, listed as ferulenol",mixed-type
same,IC50,[2],50100 nM
same,IC50,[3],50200 nM
same,IC50,human dermal fibroblast,65800 nM
same,IC50,TgMQO [4],822 nM
same,IC50,[5],57 nM
same,IC50,[6],18 nM
"O=C(O)CC(O)C(=O)O (stereo not drawn) [Malate, sodium malate]",K m of PfMQO for malate,PfMQO,"5,990 μM"
same,K m for malate,CjMQO [7]; UQ0 fixed (100 μM),298 ± 18 µM
same,K m for malate,"CjMQO [7]; UQ0 fixed (100 μM), listed as malate",298 µM
same,K m for malate,CjMQO [7]; UQ1 fixed (100 μM),882 ± 49 µM
same,K m for malate,"CjMQO [7]; UQ1 fixed (100 μM), listed as malate",882 µM
same,K m for malate,CjMQO [7]; UQ2 fixed (10 μM),"1,031 ± 93 μM"
same,K m for malate,"CjMQO [7]; UQ2 fixed (10 μM), listed as malate","1,031 μM"
same,K m for malate,CjMQO [7]; dUQ fixed (10 μM),"1,209 ± 160 μM"
same,K m for malate,"CjMQO [7]; dUQ fixed (10 μM), listed as malate","1,209 μM"
same,K m of TgMQO for malate,TgMQO [8]; in the presence of UQ1,370 µM
same,K m of TgMQO for malate,TgMQO [8]; in the presence of UQ2,637 µM
same,K m of TgMQO for malate,TgMQO [8]; in the presence of dUQ,466 µM
COC1=C(OC)C(=O)C(C)=CC1=O [UQ0],V max,CjMQO [7],49 µmol/min/mg and 49.0 ± 2.4 µmol/min/mg
same,k cat,CjMQO [7],219 ± 13.1 s⁻¹
same,k cat /K m,CjMQO [7],1.3e+06 M⁻¹ s⁻¹
same,K m for ubiquinone,CjMQO [7],168 µM and 168 ± 12.0 µM
same,K m of TgMQO for ubiquinone,TgMQO [8],225 µM
same,V max of TgMQO for ubiquinone,TgMQO [8],13 µmol/min/mg
COC1=C(OC)C(=O)C(CC=C(C)C)=C(C)C1=O [UQ1],K m for ubiquinone,CjMQO [7],46 µM and 46.0 ± 3.1 µM
same,K m of TgMQO for ubiquinone,TgMQO [8],116 µM
same,V max of TgMQO for ubiquinone,TgMQO [8],44 µmol/min/mg
COC1=C(OC)C(=O)C(C/C=C(\C)CCC=C(C)C)=C(C)C1=O [UQ2],V max,CjMQO [7],108 µmol/min/mg and 108 ± 10 µmol/min/mg
same,k cat,CjMQO [7],485 ± 42.0 s⁻¹
same,k cat /K m,CjMQO [7],1.07e+08 M⁻¹ s⁻¹
same,K m for ubiquinone,CjMQO [7],4.6 µM and 4.60 ± 1.0 µM
COC1=C(OC)C(=O)C(C/C=C(\C)CC/C=C(\C)CC/C=C(\C)CCC=C(C)C)=C(C)C1=O [UQ4],V max,CjMQO [7],10 µmol/min/mg and 10.0 ± 1.0 µmol/min/mg
same,k cat,CjMQO [7],43.9 ± 11.4 s⁻¹
same,k cat /K m,CjMQO [7],5.3e+07 M⁻¹ s⁻¹
same,K m for ubiquinone,CjMQO [7],0.8 µM and 0.80 ± 0.2 µM
same,Concentration above which substrate inhibition was observed,CjMQO [7]; possibly due to low solubility in the assay condition,> 2 µM
"CCCCCCCCCCC1=C(C)C(=O)C(OC)=C(OC)C1=O [dUQ, decylubiquinone]",K m for ubiquinone,CjMQO [7],8.5 µM and 8.50 ± 2.0 µM
same,K m of TgMQO for ubiquinone,TgMQO [8],17 µM
same,V max of TgMQO for ubiquinone,TgMQO [8],12 µmol/min/mg
CjMQO (Campylobacter jejuni subsp. jejuni NCTC 11168 = ATCC 700819) (protein) MSQQEFDVLVIGAGISGAALFYELARYTNIKNIALIEKYNTAATLNSKGTSNSQTIHCGDIETNYTLEKARKVKRTADMIVKYGLMQNAQNNFMFSHQKMALAVGDIECDYMKKRYEEFKELYPYIKFFDKAKIKQIEPKVVLGEDCNQDRPENICAMGVESGEVFTTVDFGKMSINLIEQAQKQNKNTFVAFNQEIIHIEKKDDIFILKTSNHQEYHAKSVVVNAGAHSLYLAHKMNLGMDKSCWPVAGSFYLTKQKLLNGKVYMVQNPKLPFAALHGDPDLLADMNTRFGPTALVIPKLERYHGLKSVPEFFEALKLDKTVLKVTFNMFKDATIRNYIFYNYLFELPFVDKSLFVKDAKKIVPSLKASDIYYAKGFGGVRPQVIDKTKGELMLGEASITETPGIIFNMTPSPGATSCLGNAERDAKLVCNYLGMEFNEDKFSSELL,kcat,[9],343 ± 40.4 s⁻¹
same,kcat/Km,[9],4.02e+07 M⁻¹ s⁻¹
same,kcat,[10]; UQ0 fixed (100 μM),67 ± 1.1 s⁻¹
same,kcat/Km,[10]; UQ0 fixed (100 μM),200000 M⁻¹ s⁻¹
same,kcat,[10]; UQ1 fixed (100 μM),502 ± 55.6 s⁻¹
same,kcat/Km,[10]; UQ1 fixed (100 μM),600000 M⁻¹ s⁻¹
same,kcat,[10]; UQ2 fixed (10 μM),389 ± 7.6 s⁻¹
same,kcat/Km,[10]; UQ2 fixed (10 μM),400000 M⁻¹ s⁻¹
same,kcat,[10]; dUQ fixed (10 μM),210 ± 19.2 s⁻¹
same,kcat/Km,[10]; dUQ fixed (10 μM),200000 M⁻¹ s⁻¹
same,kcat,[11]; [12],480 ± 18.7 s⁻¹
same,kcat/Km,[11]; [12],1.05e+07 M⁻¹ s⁻¹
same,Km,[11]; other: malate fixed at 0.5 mM,16.3 µM
same,Km,[11]; other: malate fixed at 2 mM,23.8 µM
same,Km,[11]; other: malate fixed at 10 mM,32.6 µM
